Activity calls are given as the source filed them. The calls are words filed in the database; no cut-off is given here.
Legend:
Type in all cases: functional, cell-based
[1] = target: T1, 5-hydroxytryptamine receptor 2C (Homo sapiens) (UniProt P28335); assay: Agonist activity at human 5-HT2CR expressed in HEK293 cells upto 50 uM incubated upto 90 sec by Fluo-4 AM dye based Ca2+ imaging assay
T1 sequence (whole entry): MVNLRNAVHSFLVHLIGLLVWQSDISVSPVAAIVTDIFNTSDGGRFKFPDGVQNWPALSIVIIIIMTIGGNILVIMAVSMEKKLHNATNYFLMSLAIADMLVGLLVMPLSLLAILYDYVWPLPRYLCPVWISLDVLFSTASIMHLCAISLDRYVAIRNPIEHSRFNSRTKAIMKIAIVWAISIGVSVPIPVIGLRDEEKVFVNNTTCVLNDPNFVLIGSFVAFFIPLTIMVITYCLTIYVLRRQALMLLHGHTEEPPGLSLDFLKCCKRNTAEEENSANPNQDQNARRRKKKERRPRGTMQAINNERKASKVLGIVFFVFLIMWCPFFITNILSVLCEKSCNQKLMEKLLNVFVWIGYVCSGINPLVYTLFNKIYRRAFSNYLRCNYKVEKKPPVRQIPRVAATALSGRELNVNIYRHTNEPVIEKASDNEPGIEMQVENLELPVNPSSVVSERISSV

[2] = target: T2, 5-hydroxytryptamine receptor 2A (Homo sapiens, UniProt P28223); assay: Agonist activity at human 5-HT2AR expressed in HEK293 cells upto 50 uM incubated upto 90 sec by Fluo-4 AM dye based Ca2+ imaging assay
[3] = target: T2, 5-hydroxytryptamine receptor 2A; assay: Agonist activity at human 5-HT2AR expressed in HEK293 cells assessed as maximal response incubated upto 90 sec by Fluo-4 AM dye based Ca2+ imaging assay relative to 5-HT; details: filed as agonist
[4] = target: T2, 5-hydroxytryptamine receptor 2A; assay: Agonist activity at human 5-HT2AR expressed in HEK293 cells incubated upto 90 sec by Fluo-4 AM dye based Ca2+ imaging assay

T2 sequence (P28223 whole entry): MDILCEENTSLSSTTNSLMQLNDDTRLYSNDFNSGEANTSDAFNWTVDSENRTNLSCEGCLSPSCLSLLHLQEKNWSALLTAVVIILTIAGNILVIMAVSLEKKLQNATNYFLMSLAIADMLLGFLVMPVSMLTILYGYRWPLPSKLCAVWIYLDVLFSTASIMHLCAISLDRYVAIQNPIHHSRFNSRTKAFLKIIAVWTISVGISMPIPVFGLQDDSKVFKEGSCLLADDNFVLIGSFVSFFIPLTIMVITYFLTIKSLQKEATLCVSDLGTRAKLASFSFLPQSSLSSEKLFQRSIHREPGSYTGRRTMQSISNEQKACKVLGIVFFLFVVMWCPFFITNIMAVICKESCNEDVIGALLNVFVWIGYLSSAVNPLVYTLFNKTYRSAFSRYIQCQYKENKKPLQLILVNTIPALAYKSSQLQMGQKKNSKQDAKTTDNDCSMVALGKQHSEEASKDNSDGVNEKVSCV

SMILES | Activity [1] | Activity [2] | Rmax [3] [%] | EC50 [4] [nM]
CCOc1cc(C(F)(F)F)c(OCC)cc1C1CCCNC1 (stereo in doubt; 26(eu)) | inactive | – | – | –
FC(F)(F)c1ccc(C2CCCNC2)cc1 (racemic) | inactive | inactive | – | –
COc1ccc(OC)c(C2CCCNC2)c1 (racemic) | inactive | inactive | – | –
CCN1CCC[C@H](c2cc(OC)c(C(F)(F)F)cc2OC)C1 | inactive | inactive | – | –
COc1cc(C2CCCNC2)ccc1C(F)(F)F (configuration not stated) | inactive | – | – | –
CCOc1cc(C(F)(F)F)c(OCC)cc1C1CCCNC1 (stereo in doubt) | inactive | – | – | –
COc1cc(CCN)c(OC)cc1Br | – | – | 68 | 1.6
CCN1CCC[C@@H](c2cc(OC)c(C(F)(F)F)cc2OC)C1 | inactive | – | – | –
